US20030087834A1, “Increased fertility and improved fetal development drug” (priority 1999, published 2003)

Columns and labels:
human = test: Examples 1-4: human taking tagatose before and during pregnancy; assay type: in vivo
Source text: A 70 kg human with a history of difficulty in conceiving begins taking tagatose twice daily at five g per dose, beginning one month before an attempt to conceive. […] A 70 kg human with a history of spontaneous abortions and stillbirths takes tagatose twice daily at five g per dose, beginning one month before an attempt to conceive. […] A 70 kg human takes precautions against giving birth to a below average weight infant by taking tagatose twice daily at five g per dose, beginning one month before an attempt to conceive. […] A 70 kg human inclined toward obesity desires a child, but is concerned that pregnancy may increase their food intake causing weight problems as experienced in their past pregnancies. They take tagatose twice daily at five g per dose, beginning one month before an attempt to conceive. […] They deliver a healthy, normal child.

Female Crl:CD(SD)BR Rats = test: Food consumption in pregnant rats fed D-tagatose; assay type: in vivo, rat; details: for Food intake (g/animal) / Food intake (g/kg body wt/day): mean ±SD
Source text: (§1) Safety tests performed on tagatose in its development as a low-calorie sweetener included developmental toxicity studies in rats. Rats are accepted by the US FDA as good models for humans in studying safety and efficacy of food additives and drugs. Newly impregnated rats were placed on various doses of tagatose in their daily diet. Female rats were housed with males nightly in a one-to-one ratio, and each morning inspections for vaginal plugs were made, and in their absence, vaginal smears were taken and tested for sperm. Those females which had been mated were selected for monitoring of fetal development and assigned to tagatose dose groups in a manner so as to provide an equal distribution of mated females among groups and also to equalize the Day 0 gestation mean body weights among the groups. There were 24 mated females in each group. On Days 6-15 of gestation three of the groups received respective total doses of 4,000, 12,000 and 20,000 mg/kg body wt/day administered via gastric intubation in two equally divided doses separated by a four-hour interval. Each dose was administered in 30 ml/kg body weight of distilled, deionized water. […] For a period of 20 days following mating, the rats were observed and measurements taken daily. Upon the 20th day, the rats were killed and a wide variety of physical, toxicological, and fetal developmental parameters was determined for treatment effects. […] However, I noted unpredictable, novel and beneficial effects with respect to fertility and fetal development.
One of the common problems associated with pregnancy is overeating which can result in excess weight gain with its concomitant health risks to the mother and fetus. […] This represents a clear health advantage for both dam and fetus receiving tagatose.

[1] = system: Female Crl:CD (SD) BR Rats; test: Developmental toxicity study in rats: reproductive performance and fetal development; assay type: in vivo, rat; details: for Females pregnant (%) / Fertility index / Litters with resorptions (%) / Number of dead fetuses / Number of females bearing viable fetuses / Number of females pregnant / Number of litters with resorptions / Total number of viable fetuses / Body weight (g) of viable fetuses / Body weight (g) of viable fetuses: Female fetuses / Body weight (g) of viable fetuses: Male fetuses / Number of corpora lutea / Number of female fetuses / Number of implantation sites / Number of males fetuses / Number of resorptions / Postimplantation loss = (resorptions/implantations) / Preimplantation loss = (corpora lutea-implants)/(corpora lutea): Days 6 to 15 of gestation; for Total number of viable fetuses: Day 20; for Body weight (g) of viable fetuses / Body weight (g) of viable fetuses: Female fetuses / Body weight (g) of viable fetuses: Male fetuses / Number of corpora lutea / Number of female fetuses / Number of implantation sites / Number of males fetuses / Number of resorptions / Postimplantation loss = (resorptions/implantations) / Preimplantation loss = (corpora lutea-implants)/(corpora lutea): mean ±SD
Source text: as §1

[2] = 4,000 mg/kg/day, Days 0-6 of pregnancy (pretreatment)
[3] = 4,000 mg/kg/day, Days 6-9 of pregnancy
[4] = 4,000 mg/kg/day, Days 9-12 of pregnancy
[5] = 4,000 mg/kg/day, Days 12-16 of pregnancy
[6] = 4,000 mg/kg/day, Days 16-20 of pregnancy (posttreatment)
[7] = 12,000 mg/kg/day, Days 0-6 of pregnancy (pretreatment)
[8] = 12,000 mg/kg/day, Days 6-9 of pregnancy
[9] = 12,000 mg/kg/day, Days 9-12 of pregnancy
[10] = 12,000 mg/kg/day, Days 12-16 of pregnancy
[11] = 12,000 mg/kg/day, Days 16-20 of pregnancy (posttreatment)
[12] = 20,000 mg/kg/day, Days 0-6 of pregnancy (pretreatment)
[13] = 20,000 mg/kg/day, Days 6-9 of pregnancy
[14] = 20,000 mg/kg/day, Days 9-12 of pregnancy
[15] = 20,000 mg/kg/day, Days 12-16 of pregnancy
[16] = 20,000 mg/kg/day, Days 16-20 of pregnancy (posttreatment)

O=C(CO)[C@@H](O)[C@@H](O)[C@H](O)CO [D-tagatose]
Birth weight (human; 70 kg human female, family history of low birth weight babies, five g twice daily): delivers a baby within the normal birth weight range
Food intake during pregnancy (human; 70 kg human inclined toward obesity, five g twice daily): their average daily diet does not increase
Conception (increased fertility) (human; 70 kg human, history of difficulty conceiving, five g twice daily from one month before attempt): their attempt is successful and they are pregnant
Live birth (human; 70 kg human, history of spontaneous abortions and stillbirths, five g twice daily): delivering a live birth
Food intake (g/animal) (Female Crl:CD(SD)BR Rats; [2]): 144 ± 11 g/animal
Food intake (g/kg body wt/day) (Female Crl:CD(SD)BR Rats; [2]): 103 ± 7 g/kg body wt/day
Food intake (g/animal) (Female Crl:CD(SD)BR Rats; [3]): 70 ± 5 g/animal
Food intake (g/kg body wt/day) (Female Crl:CD(SD)BR Rats; [3]): 84 ± 4 g/kg body wt/day
Food intake (g/animal) (Female Crl:CD(SD)BR Rats; [4]): 78 ± 7 g/animal
Food intake (g/kg body wt/day) (Female Crl:CD(SD)BR Rats; [4]): 91 ± 5 g/kg body wt/day
Food intake (g/animal) (Female Crl:CD(SD)BR Rats; [5]): 112 ± 9 g/animal
Food intake (g/kg body wt/day) (Female Crl:CD(SD)BR Rats; [5]): 90 ± 5 g/kg body wt/day
Food intake (g/animal) (Female Crl:CD(SD)BR Rats; [6]): 129 ± 10 g/animal
Food intake (g/kg body wt/day) (Female Crl:CD(SD)BR Rats; [6]): 94 ± 3 g/kg body wt/day
Food intake (g/animal) (Female Crl:CD(SD)BR Rats; [7]): 148 ± 8 g/animal
Food intake (g/kg body wt/day) (Female Crl:CD(SD)BR Rats; [7]): 104 ± 8 g/kg body wt/day
Food intake (g/animal) (Female Crl:CD(SD)BR Rats; [8]): 58 ± 6 g/animal
Food intake (g/kg body wt/day) (Female Crl:CD(SD)BR Rats; [8]): 69 ± 7 g/kg body wt/day
Food intake (g/animal) (Female Crl:CD(SD)BR Rats; [9]): 73 ± 6 g/animal
Food intake (g/kg body wt/day) (Female Crl:CD(SD)BR Rats; [9]): 84 ± 5 g/kg body wt/day
Food intake (g/animal) (Female Crl:CD(SD)BR Rats; [10]): 105 ± 9 g/animal
Food intake (g/kg body wt/day) (Female Crl:CD(SD)BR Rats; [10]): 83 ± 5 g/kg body wt/day
Food intake (g/animal) (Female Crl:CD(SD)BR Rats; [11]): 137 ± 9 g/animal
Food intake (g/kg body wt/day) (Female Crl:CD(SD)BR Rats; [11]): 99 ± 5 g/kg body wt/day
Food intake (g/animal) (Female Crl:CD(SD)BR Rats; [12]): 149 ± 14 g/animal
Food intake (g/kg body wt/day) (Female Crl:CD(SD)BR Rats; [12]): 107 ± 9 g/kg body wt/day
Food intake (g/animal) (Female Crl:CD(SD)BR Rats; [13]): 43 ± 12 g/animal
Food intake (g/kg body wt/day) (Female Crl:CD(SD)BR Rats; [13]): 51 ± 14 g/kg body wt/day
Food intake (g/animal) (Female Crl:CD(SD)BR Rats; [14]): 67 ± 7 g/animal
Food intake (g/kg body wt/day) (Female Crl:CD(SD)BR Rats; [14]): 80 ± 7 g/kg body wt/day
Food intake (g/animal) (Female Crl:CD(SD)BR Rats; [15]): 94 ± 10 g/animal
Food intake (g/kg body wt/day) (Female Crl:CD(SD)BR Rats; [15]): 77 ± 6 g/kg body wt/day
Food intake (g/animal) (Female Crl:CD(SD)BR Rats; [16]): 138 ± 11 g/animal
Food intake (g/kg body wt/day) (Female Crl:CD(SD)BR Rats; [16]): 102 ± 6 g/kg body wt/day
Weight loss in the dams (Female Crl:CD(SD)BR Rats; except Day 6 to Day 9, attributed to laxation in the high dose groups): no consistent weight loss in the dams
Total daily food intake versus control group (Female Crl:CD(SD)BR Rats; period on tagatose, Day 6 through Day 15): less than the daily food intakes of rats in the control group
Females pregnant (%) ([1]; 4,000 mg/kg/day): 100%
Fertility index ([1]; 4,000 mg/kg/day): 100
Litters with resorptions (%) ([1]; 4,000 mg/kg/day): 78.3%
Number of dead fetuses ([1]; 4,000 mg/kg/day): 0
Number of females bearing viable fetuses ([1]; 4,000 mg/kg/day): 23
Number of females pregnant ([1]; 4,000 mg/kg/day): 23
Number of litters with resorptions ([1]; 4,000 mg/kg/day): 18
Total number of viable fetuses ([1]; 4,000 mg/kg/day): 354
Body weight (g) of viable fetuses ([1]; 4,000 mg/kg/day): 3.56 ± 0.21 g
Body weight (g) of viable fetuses: Female fetuses ([1]; 4,000 mg/kg/day): 3.49 ± 0.20 g
Body weight (g) of viable fetuses: Male fetuses ([1]; 4,000 mg/kg/day): 3.64 ± 0.22 g
Number of corpora lutea ([1]; 4,000 mg/kg/day): 17.7 ± 2.8
Number of female fetuses ([1]; 4,000 mg/kg/day): 8.0 ± 2.2
Number of implantation sites ([1]; 4,000 mg/kg/day): 16.5 ± 2.3
Number of males fetuses ([1]; 4,000 mg/kg/day): 7.4 ± 2.3
Number of resorptions ([1]; 4,000 mg/kg/day): 1.1 ± 0.9
Postimplantation loss = (resorptions/implantations) ([1]; 4,000 mg/kg/day): 0.068 ± 0.051
Preimplantation loss = (corpora lutea-implants)/(corpora lutea) ([1]; 4,000 mg/kg/day): 0.053 ± 0.113
Females pregnant (%) ([1]; 12,000 mg/kg/day): 91.3%
Fertility index ([1]; 12,000 mg/kg/day): 91.3
Litters with resorptions (%) ([1]; 12,000 mg/kg/day): 28.6%
Number of dead fetuses ([1]; 12,000 mg/kg/day): 0
Number of females bearing viable fetuses ([1]; 12,000 mg/kg/day): 21
Number of females pregnant ([1]; 12,000 mg/kg/day): 21
Number of litters with resorptions ([1]; 12,000 mg/kg/day): 6
Total number of viable fetuses ([1]; 12,000 mg/kg/day): 322
Body weight (g) of viable fetuses ([1]; 12,000 mg/kg/day): 3.75 ± 0.32 g
Body weight (g) of viable fetuses: Female fetuses ([1]; 12,000 mg/kg/day): 3.65 ± 0.35 g
Body weight (g) of viable fetuses: Male fetuses ([1]; 12,000 mg/kg/day): 3.84 ± 0.33 g
Number of corpora lutea ([1]; 12,000 mg/kg/day): 17.7 ± 2.9
Number of female fetuses ([1]; 12,000 mg/kg/day): 7.5 ± 2.2
Number of implantation sites ([1]; 12,000 mg/kg/day): 15.9 ± 2.9
Number of males fetuses ([1]; 12,000 mg/kg/day): 7.8 ± 2.3
Number of resorptions ([1]; 12,000 mg/kg/day): 0.5 ± 0.9
Postimplantation loss = (resorptions/implantations) ([1]; 12,000 mg/kg/day): 0.043 ± 0.087
Preimplantation loss = (corpora lutea-implants)/(corpora lutea) ([1]; 12,000 mg/kg/day): 0.094 ± 0.151
Females pregnant (%) ([1]; 20,000 mg/kg/day): 100%
Fertility index ([1]; 20,000 mg/kg/day): 100
Litters with resorptions (%) ([1]; 20,000 mg/kg/day): 54.2%
Number of dead fetuses ([1]; 20,000 mg/kg/day): 0
Number of females bearing viable fetuses ([1]; 20,000 mg/kg/day): 24
Number of females pregnant ([1]; 20,000 mg/kg/day): 24
Number of litters with resorptions ([1]; 20,000 mg/kg/day): 13
Total number of viable fetuses ([1]; 20,000 mg/kg/day): 350
Body weight (g) of viable fetuses ([1]; 20,000 mg/kg/day): 3.57 ± 0.24 g
Body weight (g) of viable fetuses: Female fetuses ([1]; 20,000 mg/kg/day): 3.49 ± 0.19 g
Body weight (g) of viable fetuses: Male fetuses ([1]; 20,000 mg/kg/day): 3.68 ± 0.27 g
Number of corpora lutea ([1]; 20,000 mg/kg/day): 17.4 ± 2.8
Number of female fetuses ([1]; 20,000 mg/kg/day): 7.1 ± 2.3
Number of implantation sites ([1]; 20,000 mg/kg/day): 15.3 ± 2.9
Number of males fetuses ([1]; 20,000 mg/kg/day): 7.5 ± 2.3
Number of resorptions ([1]; 20,000 mg/kg/day): 0.8 ± 0.8
Postimplantation loss = (resorptions/implantations) ([1]; 20,000 mg/kg/day): 0.047 ± 0.049
Preimplantation loss = (corpora lutea-implants)/(corpora lutea) ([1]; 20,000 mg/kg/day): 0.107 ± 0.162
Adverse effects in the dams or fetuses ([1]; 4,000, 12,000 and 20,000 mg/kg body wt/day via gastric intubation, Days 6-15 of gestation, killed Day 20): No adverse effects in the dams or fetuses were found
Fetal weight versus control rats ([1]; each tagatose group, total, males and females): weighed more than the fetuses of the control rats
Fetal weight relative to normal weight range for age ([1]; fetuses from rats on tagatose, normal range 3.35-3.86 g males, 3.19-3.63 g females): within the normal weight range for their ages
